Measurements as given in patent US8426588B2, “Phenylalanine derivatives” (Ajinomoto Co, Inc., priority 2000, dated 2013).

How the values were obtained:
[1] = biological target: T1, integrin α4β1 (Homo sapiens, UniProt P05556+P13612); test: VCAM antagonist activity (VCAM-1/α4β1 binding assay), Jurkat cells binding to VCAM-1; assay type: cell-based; settings: Jurkat human T cells binding to recombinant human VCAM-1; read-out: VCAM antagonistic activity (IC50) α4β1
T1 construct: cell strain Jurkat (ATCC TIB-152) of human T cells, known to express integrin α4β1; endogenous in cells; host or cells: Jurkat (ATCC TIB-152)
T1 sequence (P05556 21-798, one chain of several): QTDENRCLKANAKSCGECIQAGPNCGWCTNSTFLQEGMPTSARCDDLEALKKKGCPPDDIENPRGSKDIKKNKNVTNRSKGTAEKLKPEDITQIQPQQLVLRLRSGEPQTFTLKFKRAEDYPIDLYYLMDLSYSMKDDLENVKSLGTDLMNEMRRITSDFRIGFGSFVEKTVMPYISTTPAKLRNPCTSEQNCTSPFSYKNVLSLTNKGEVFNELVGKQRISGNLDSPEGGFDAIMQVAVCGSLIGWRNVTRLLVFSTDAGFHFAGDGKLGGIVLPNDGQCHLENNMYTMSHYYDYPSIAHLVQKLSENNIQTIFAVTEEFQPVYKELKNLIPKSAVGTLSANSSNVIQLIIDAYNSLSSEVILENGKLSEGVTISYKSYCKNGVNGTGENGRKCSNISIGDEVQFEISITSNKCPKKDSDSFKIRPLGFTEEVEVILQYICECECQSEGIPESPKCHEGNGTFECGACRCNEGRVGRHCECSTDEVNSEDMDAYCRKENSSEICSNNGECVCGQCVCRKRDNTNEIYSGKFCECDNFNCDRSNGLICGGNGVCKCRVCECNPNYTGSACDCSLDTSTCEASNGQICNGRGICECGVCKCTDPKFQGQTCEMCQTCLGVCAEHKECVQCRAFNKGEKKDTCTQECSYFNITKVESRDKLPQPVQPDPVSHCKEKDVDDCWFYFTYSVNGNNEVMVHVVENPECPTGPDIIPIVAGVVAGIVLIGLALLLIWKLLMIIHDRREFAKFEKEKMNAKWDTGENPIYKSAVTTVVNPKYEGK
Protocol: VCAM Antagonist Activity (VCAM-1/α4β1 Binding Assay)
The capacity of a test substance antagonistic to the binding of cell strain Jurkat (ATCC TIB-152) of human T cells, known to express integrin α4β1, to VCAM-1 was determined.
(§1) 100 μl/well of a solution (500 ng/ml) of recombinant human VCAM-1 (R & D systems) solution diluted with buffer A (0.1 M NaHCO3, pH 9.6) was added to a micro titer plate having 96 wells (Nunc Maxisorp). After the incubation at 4° C. overnight, unbound VCAM-1 was removed by washing once with PBS. After completion of the washing, a buffer (buffer B) obtained by diluting Block Ace (Dainippon Pharmaceutical Co., Ltd.) with PBS to ¼ concentration was added in an amount of 150 μl/well. After the incubation at room temperature for 1 hour, buffer B was removed and the plate was washed with PBS once.
Jurkat cells were washed with Dulbecco modified Eagle medium (SIGMA, hereinafter referred to as “DMEM”) twice and then incubated in DMEM containing 10 μg/ml of Calcein-AM (Wako Pure Chemical Industries, Ltd.) at 37° C. in dark place for 30 minutes to label with fluorescence. The cells were again suspended in a binding buffer (20 mM HEPES, DMEM containing 0.1% BSA).
(§2) 50 μl of a test substance of various concentrations obtained by the dilution with the binding buffer was added to the plate. Immediately thereafter, 50 μl (final volume: 100 μl/well) of the fluorescent Jurkat cells (4×10^6 cells/ml) were added thereto, and they were incubated in dark place at room temperature for 30 minutes. After the shaking on a plate shaker (IKA MTS-4) at 800 rpm for 30 seconds, the solution was immediately removed to remove the unbound cells. The fluorescence quantity of the bound cells remaining in the wells was determined with a fluorescent plate reader (Wallac 1920 ARVO multi-label counter) (filter excitation wave length: 485 nm, emission wave length: 535 nm). The fluorescent strength thus obtained is proportional to the number of Jurkat cells bound to VCAM-1 and remaining on the plate. The binding rate of each test material in various concentrations was determined while the fluorescent strength of the test material-free well was determined to be 100%.

[2] = biological target: T2, integrin α4β7 (Homo sapiens, UniProt P13612+P26010); test: VCAM antagonistic activity (VCAM-1/α4β7 binding assay), RPMI-8866 cells binding to VCAM-1; assay type: cell-based; settings: RPMI-8866 human B lymphoma cells binding to recombinant human VCAM-1; binding buffer with 4 mM MnCl2
T2 construct: lymphoma cell strain RPMI-8866 of human B cells, known to express integrin α4β7; endogenous in cells; host or cells: RPMI-8866
T2 sequence (P13612 34-1032): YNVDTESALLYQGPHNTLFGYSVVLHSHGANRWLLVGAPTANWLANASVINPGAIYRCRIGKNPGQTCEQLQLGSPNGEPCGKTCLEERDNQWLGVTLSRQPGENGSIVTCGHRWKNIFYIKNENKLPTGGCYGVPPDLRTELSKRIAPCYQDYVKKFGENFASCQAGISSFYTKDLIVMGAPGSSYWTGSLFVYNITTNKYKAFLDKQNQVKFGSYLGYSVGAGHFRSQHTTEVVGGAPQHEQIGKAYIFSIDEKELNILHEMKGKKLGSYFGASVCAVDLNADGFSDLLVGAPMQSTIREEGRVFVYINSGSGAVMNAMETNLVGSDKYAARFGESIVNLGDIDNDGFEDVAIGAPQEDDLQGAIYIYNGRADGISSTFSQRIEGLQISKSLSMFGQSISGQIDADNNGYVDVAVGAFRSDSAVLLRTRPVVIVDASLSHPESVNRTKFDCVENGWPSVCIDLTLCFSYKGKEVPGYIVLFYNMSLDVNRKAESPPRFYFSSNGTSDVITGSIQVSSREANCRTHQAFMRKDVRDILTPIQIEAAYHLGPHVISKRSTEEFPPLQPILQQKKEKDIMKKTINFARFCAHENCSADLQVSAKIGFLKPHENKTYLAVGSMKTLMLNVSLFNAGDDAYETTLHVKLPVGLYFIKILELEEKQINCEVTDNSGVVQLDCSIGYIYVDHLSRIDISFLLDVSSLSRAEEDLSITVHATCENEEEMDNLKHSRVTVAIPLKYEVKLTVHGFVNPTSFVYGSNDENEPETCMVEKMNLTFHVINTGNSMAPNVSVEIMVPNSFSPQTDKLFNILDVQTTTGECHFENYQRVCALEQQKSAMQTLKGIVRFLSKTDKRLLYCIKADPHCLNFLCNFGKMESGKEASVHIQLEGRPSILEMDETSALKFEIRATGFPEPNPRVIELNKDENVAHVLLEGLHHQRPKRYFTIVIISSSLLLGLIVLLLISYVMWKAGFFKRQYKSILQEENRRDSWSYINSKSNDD
T2 sequence (P26010 20-798): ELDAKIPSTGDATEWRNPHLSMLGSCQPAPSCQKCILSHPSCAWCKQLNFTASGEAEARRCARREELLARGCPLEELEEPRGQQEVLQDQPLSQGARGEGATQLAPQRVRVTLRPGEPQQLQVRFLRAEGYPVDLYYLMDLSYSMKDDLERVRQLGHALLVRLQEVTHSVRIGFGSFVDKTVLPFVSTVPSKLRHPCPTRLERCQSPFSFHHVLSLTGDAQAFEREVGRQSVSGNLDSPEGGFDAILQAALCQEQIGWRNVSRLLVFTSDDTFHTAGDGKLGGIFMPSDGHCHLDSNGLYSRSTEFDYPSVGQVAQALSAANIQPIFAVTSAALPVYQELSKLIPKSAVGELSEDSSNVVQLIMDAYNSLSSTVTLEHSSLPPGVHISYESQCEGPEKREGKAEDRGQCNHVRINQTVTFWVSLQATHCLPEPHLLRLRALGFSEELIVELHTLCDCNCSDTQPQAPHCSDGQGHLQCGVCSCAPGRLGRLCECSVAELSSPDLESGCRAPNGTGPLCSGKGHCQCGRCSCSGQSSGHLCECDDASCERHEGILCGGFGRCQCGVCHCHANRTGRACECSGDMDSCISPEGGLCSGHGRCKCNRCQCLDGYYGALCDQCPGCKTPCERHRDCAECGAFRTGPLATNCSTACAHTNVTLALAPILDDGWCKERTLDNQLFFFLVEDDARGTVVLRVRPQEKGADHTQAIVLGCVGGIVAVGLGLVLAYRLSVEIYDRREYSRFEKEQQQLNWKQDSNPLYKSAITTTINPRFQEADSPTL
Protocol: VCAM Antagonistic Activity (VCAM-1/α4β7 Binding Assay)
The capacity of a test substance antagonistic to the binding of lymphoma cell strain RPMI-8866 of human B cells, known to express integrin α4β7, to VCAM-1 was determined.
as §1
RPMI-8866 cells were washed with DMEM twice and incubated in Dulbecco modified Eagle medium containing 10 μg/ml of Calcein-AM (Wako Pure Chemical Industries, Ltd.) (SIGMA, hereinafter referred to as “DMEM”) in dark place at 37° C. for 30 minutes to label with fluorescence. The cells were again suspended in a binding buffer (20 mM HEPES, DMEM containing 0.1% BSA) containing 4 mM of MnCl2.
as §2, with “RPMI-8866” for “Jurkat”, “1420” for “1920”

IC50 [1] [µM] | IC50 [2] [µM] | SMILES
0.24 | 0.0092 | O=C(N[C@@H](Cc1ccc(-n2c(=O)[nH]c3ccccc3c2=O)cc1)C(=O)O)c1c(Cl)cccc1Cl [Example 2]
0.066 | 0.0035 | CCn1c(=O)n(-c2ccc(C[C@H](NC(=O)c3c(Cl)cccc3Cl)C(=O)O)cc2)c(=O)c2ccccc21 [Example 3]
0.11 | 0.022 | O=C(O)Cn1c(=O)n(-c2ccc(C[C@H](NC(=O)c3c(Cl)cccc3Cl)C(=O)O)cc2)c(=O)c2ccccc21 [Example 7]
0.44 | 0.094 | COc1cccc(OC)c1C(=O)N[C@@H](Cc1ccc(-n2c(=O)c3ccccc3n(C)c2=O)cc1)C(=O)O [Example 9]
0.49 | 0.019 | Cn1c(=O)n(-c2ccc(C[C@H](NC(=O)C3CCCCC3)C(=O)O)cc2)c(=O)c2ccccc21 [Example 12]
0.22 | 0.0045 | Cn1c(=O)n(-c2ccc(C[C@H](NC(=O)[C@H]3CC[C@H](C(=O)O)CC3)C(=O)O)cc2)c(=O)c2ccccc21 [Example 13]
2.1 | 0.043 | CCSc1nc2ccccc2c(=O)n1-c1ccc(C[C@H](NC(=O)c2c(Cl)cccc2Cl)C(=O)O)cc1 [Example 17]
1.9 | 0.023 | CSc1nc2ccccc2c(=O)n1-c1ccc(C[C@H](NC(=O)c2c(Cl)cccc2Cl)C(=O)O)cc1 [Example 18]
7.24 | 0.018 | COc1ccc(C(=O)CSc2nc3ccccc3c(=O)n2-c2ccc(C[C@H](NC(=O)c3c(Cl)cccc3Cl)C(=O)O)cc2)cc1 [Example 23]
0.63 | 0.05 | Cc1nc2ccccc2c(=O)n1-c1ccc(C[C@H](NC(=O)c2c(Cl)cccc2Cl)C(=O)O)cc1 [Example 31]
2.42 | 0.064 | CCc1nc2ccccc2c(=O)n1-c1ccc(C[C@H](NC(=O)c2c(Cl)cccc2Cl)C(=O)O)cc1 [Example 32]
2.21 | 0.042 | CCCCc1nc2ccccc2c(=O)n1-c1ccc(C[C@H](NC(=O)c2c(Cl)cccc2Cl)C(=O)O)cc1 [Example 34]
1.7 | 0.068 | O=C(N[C@@H](Cc1ccc(-n2c(-c3ccccc3)nc3ccccc3c2=O)cc1)C(=O)O)c1c(Cl)cccc1Cl [Example 35]
0.49 | 0.0066 | COc1nc2ccccc2c(=O)n1-c1ccc(C[C@H](NC(=O)c2c(Cl)cccc2Cl)C(=O)O)cc1 [Example 36]
0.2 | 0.019 | CCOc1nc2ccccc2c(=O)n1-c1ccc(C[C@H](NC(=O)c2c(Cl)cccc2Cl)C(=O)O)cc1 [Example 37]
3.41 | 0.086 | CCCCc1nc2ccccc2c(=O)n1-c1ccc(C[C@H](NC(=O)c2c(C)cccc2C)C(=O)O)cc1 [Example 41]
6.73 | 0.092 | Cc1cccc(C)c1C(=O)N[C@@H](Cc1ccc(-n2c(-c3ccccc3)nc3ccccc3c2=O)cc1)C(=O)O [Example 42]
4.23 | 0.079 | Cc1cccc(C)c1C(=O)N[C@@H](Cc1ccc(-n2c(CCl)nc3ccccc3c2=O)cc1)C(=O)O [Example 44]
0.34 | 0.0102 | O=C(N[C@@H](Cc1ccc(-n2c(=O)[nH]c3c(Cl)cccc3c2=O)cc1)C(=O)O)c1c(Cl)cccc1Cl [Example 45]
0.195 | 0.0068 | COc1cccc2c(=O)n(-c3ccc(C[C@H](NC(=O)c4c(Cl)cccc4Cl)C(=O)O)cc3)c(=O)[nH]c12 [Example 46]
1.98 | 0.076 | O=C(N[C@@H](Cc1ccc(-n2c(=O)[nH]c3ccc(Cl)cc3c2=O)cc1)C(=O)O)c1c(Cl)cccc1Cl [Example 47]
1.8 | 0.028 | COc1ccc2[nH]c(=O)n(-c3ccc(C[C@H](NC(=O)c4c(Cl)cccc4Cl)C(=O)O)cc3)c(=O)c2c1 [Example 48]
1.18 | 0.0621 | O=C(N[C@@H](Cc1ccc(-n2c(=O)[nH]c3cc(C(F)(F)F)ccc3c2=O)cc1)C(=O)O)c1c(Cl)cccc1Cl [Example 49]
1.77 | 0.0079 | Cc1cccc2c(=O)n(-c3ccc(C[C@H](NC(=O)c4c(Cl)cccc4Cl)C(=O)O)cc3)c(=O)[nH]c12 [Example 50]
1.18 | 0.03 | COc1cc2[nH]c(=O)n(-c3ccc(C[C@H](NC(=O)c4c(Cl)cccc4Cl)C(=O)O)cc3)c(=O)c2cc1OC [Example 51]
1.31 | 0.0553 | O=C(N[C@@H](Cc1ccc(-n2c(=O)[nH]c3ccc(F)cc3c2=O)cc1)C(=O)O)c1c(Cl)cccc1Cl [Example 52]
